Like-named read-outs stand apart in the source and are kept apart here.
How the values were obtained:
Assay in all cases: PTP IC50 assay, fluorescent substrate DiFMUP
Type in all cases: biochemical
PTP EPSILON = target: T1, PTP EPSILON (Homo sapiens, UniProt P23469)
T1 construct: made in house; host or cells: Sf-9 insect cells (pFastBac-G2T); a pGEX 6P-1 construct also existed
Description: The PTPepsilon cDNA was amplified from human placenta single-strand cDNA (Clontech RNA) using the following oligonucleotides: 5′oligo: 5′-[…]-3′ (SEQ ID NO: 6) 3′oligo: 5′-[…]-3′ (SEQ ID NO: 7) After cloning this PCR product into the Bam HI/Xho I sites of pGEX 6P-1, this phosphatase was subcloned using the same restriction sites in pFastBac-G2T.
(§1) The following in vitro assay procedure is preferred to determine the level of activity and effect of the different compounds of the present invention on one or more of the PTPs. Similar assays can be designed along the same lines for any PTP using techniques well known in the art.
(§2) The catalytic assays described herein are performed in a 96-well format. The general procedure begins with the determination of PTP optimal pH using a three-component buffer system that minimizes ionic strength variations across a wide range of buffer pH. Next, the Michaelis-Menten constant, or Km, is determined for the substrate 6,8-difluoro-4-methylumbelliferyl phosphate (DiFMUP). This Km value is subsequently used as the substrate reaction concentration for compound screening. Finally, the test PTP is exposed to varying concentrations of compound for fifteen minutes and allowed to react with substrate for ten minutes. The results are plotted as percent inhibition versus compound concentration and the IC50 interpolated from the plot.
(§3) All assays were performed using DiFMUP as substrate. The optimum pH and substrate Km was determined for each PTP used.
(§4) PTPase activity was assayed at 25° C. in a 100-μl reaction mixture containing an appropriate concentration of DiFMUP as substrate. The reaction was initiated by addition of the purified PTP and quenched after 10 min by addition of 1% H2O2/100 mM NaCl. The non-enzymatic hydrolysis of the substrate was corrected by measuring the control without the addition of the enzyme. The amount of DiFMU produced was determined from the increase in the fluorescence (360 nm excitation/460 nm emission) over that of background in the absence of PTPase. To determine the kinetic parameter, Km, the initial velocities were measured at various substrate concentrations and the data were fitted to the Michaelis equation where velocity=(Vmax*[S])/(Km+[S]), and [S]=substrate reaction concentration.
(§5) The effect of the compounds on PTP was evaluated at 25° C. using DiFMUP as substrate. PTP was pre-incubated for fifteen minutes with various concentrations of compound. Substrate was then added at a fixed concentration (usually equal to the Km previously calculated). After 10 minutes, the reaction was quenched. The hydrolysis of DiFMUP was followed as described above. The percent inhibition was calculated as follows: Percent Inhibition=[(control signal−compound signal)/control signal]×100%. The IC50 was then determined by interpolation of a percent inhibition versus compound concentration plot.
(§6) Plasmids designed for bacterial GST-PTP fusion protein expression were derived by insertion of PCR-generated human PTP fragments into pGEX vectors (Pharmacia Biotech). Several of these constructs were then used to subclone phosphatases into pFastBac-1 for expression in Sf-9 insect cells. Oligonucleotides used for the initial amplification of PTP genes are as described above. The cDNAs were prepared using the Gilbo BRL superscript preamplification system on RNAs purchased from Clontech.

PTP 1B = target: T2, PTP 1B (Homo sapiens, UniProt P18031)
T2 construct: made in house; host or cells: Sf-9 insect cells (pFastBac-G2T)
T2 sequence (P18031 1-435): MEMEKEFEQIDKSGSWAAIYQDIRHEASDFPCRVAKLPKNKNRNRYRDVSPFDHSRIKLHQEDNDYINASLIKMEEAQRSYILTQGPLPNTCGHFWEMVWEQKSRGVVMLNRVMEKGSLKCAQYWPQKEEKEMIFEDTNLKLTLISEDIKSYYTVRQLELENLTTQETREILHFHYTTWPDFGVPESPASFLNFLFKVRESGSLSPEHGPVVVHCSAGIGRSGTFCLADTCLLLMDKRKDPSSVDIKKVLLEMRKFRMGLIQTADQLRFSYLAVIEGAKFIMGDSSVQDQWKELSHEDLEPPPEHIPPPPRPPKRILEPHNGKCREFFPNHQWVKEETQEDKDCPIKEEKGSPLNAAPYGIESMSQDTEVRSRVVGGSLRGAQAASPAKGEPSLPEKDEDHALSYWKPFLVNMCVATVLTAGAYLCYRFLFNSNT
Description: The PTP1b cDNA was amplified from human placenta single strand cDNA (Clontech RNA) using the following oligonucleotides: 5′oligo: 5′-[…] (SEQ ID NO: 4) 3′oligo: 5′-[…] (SEQ ID NO: 5) It was subsequently ligated into pFasBac G2TBamH1Xba-1 sites.
as §1, §2, §3, §4, §5, §6

PTP SHP2 = target: T3, PTP SHP2 (Homo sapiens, UniProt Q06124); conditions: DiFMUP as substrate, 25° C.; read-out: PTP IC50 SHP2
T3 construct: The catalytic domain was amplified using the following oligonucleotides; made in house; host or cells: Sf-9 insect cells (pFastBac-G2T)
T3 sequence (Q06124 247-517 limits assumed): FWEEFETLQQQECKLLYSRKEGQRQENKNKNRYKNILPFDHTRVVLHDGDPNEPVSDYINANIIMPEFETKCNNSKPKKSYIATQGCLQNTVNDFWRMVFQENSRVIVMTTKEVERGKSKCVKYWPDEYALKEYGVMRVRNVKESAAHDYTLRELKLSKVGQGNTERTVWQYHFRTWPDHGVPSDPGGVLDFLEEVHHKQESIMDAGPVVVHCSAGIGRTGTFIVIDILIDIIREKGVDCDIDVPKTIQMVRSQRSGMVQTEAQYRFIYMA
Description: SHP-2 cDNA was used as described earlier (Vogel W., et al.,1993, Science, 259:1611-4). The catalytic domain was amplified using the following oligonucleotides 5′oligo: 5′-[…]-3′ (SEQ ID NO: 2) 3′oligo: 5′-[…]-3′ (SEQ ID NO: 3) and subsequently subcloned into BamH1-Xba-1 sites. It was then ligated into pfas Bac-G2T BamH1-Xba-1 sites.
as §1, §2, §3, §4, §5, §6

[1] = DiFMUP as substrate, 25° C., read-out: PTP IC50 Epilson
[2] = DiFMUP as substrate, 25° C., read-out: PTP IC50 1B

T1 sequence (P23469 80-393 limits assumed): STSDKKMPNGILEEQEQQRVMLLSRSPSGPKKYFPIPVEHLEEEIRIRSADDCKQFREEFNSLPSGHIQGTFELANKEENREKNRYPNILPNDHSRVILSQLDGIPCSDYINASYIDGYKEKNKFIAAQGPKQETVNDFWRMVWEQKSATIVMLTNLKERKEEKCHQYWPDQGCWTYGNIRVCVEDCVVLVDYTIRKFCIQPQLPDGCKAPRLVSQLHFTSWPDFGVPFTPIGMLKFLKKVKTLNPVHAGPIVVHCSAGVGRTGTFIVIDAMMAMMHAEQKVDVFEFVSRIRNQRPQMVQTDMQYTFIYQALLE

Compound	IC50 (PTP EPSILON; [1])	IC50 (PTP 1B; [2])	IC50 (PTP SHP2)	IC50 (PTP EPSILON)	IC50 (PTP 1B)
CN(Cc1ccc2cc(C(=O)O)ccc2c1)S(=O)(=O)C(F)(F)F [Example 92, 6-[(Methyl-trifluoromethanesulfonyl-amino)-methyl]-naphthalene-2-carboxylic acid]	5.1 µM	> 20 µM	48 µM	–	–
O=C(O)c1ccc(OCCOc2ccc(S(=O)(=O)C(F)(F)F)cc2[N+](=O)[O-])cc1 [Example 53, 4-[2-(2-Nitro-4-trifluoromethanesulfonyl-phenoxy)-ethoxy]-benzoic acid]	22.2 µM	1.5 µM	1.5 µM	–	–
CCCN(C(C)=O)C(C(=O)NCC(=O)OCC)c1ccc(S(=O)(=O)C(F)(F)F)cc1 (centres unmarked) [Example 50, [2-(Acetyl-propyl-amino)-2-(4-trifluoromethanesulfonyl-phenyl)-acetylamino]-acetic acid ethyl ester]	> 100 µM	> 100 µM	> 100 µM	–	–
CCCCNC(=O)C(c1ccc(S(=O)(=O)C(F)(F)F)cc1)N(CCO)C(=O)c1ccccc1 (centres unmarked) [Example 45, N-[Butylcarbamoyl-(4-trifluoromethanesulfonyl-phenyl)-methyl]-N-(2-hydroxy-ethyl)-benzamide]	> 100 µM	> 100 µM	> 100 µM	–	–
O=C(O)Cn1c(C(=O)O)cc2cc(NS(=O)(=O)C(F)(F)F)ccc21 [Example 97, 1-Carboxymethyl-5-trifluoromethanesulfonylamino-1H-indole-2-carboxylic acid]	62.9 µM	44.2 µM	6.1 µM	–	–
CCOC(=O)c1cc2cc(NS(=O)(=O)C(F)(F)F)ccc2n1C [Example 89, 1-Methyl-5-trifluoromethanesulfonylamino-1H-indole-2-carboxylic acid ethyl ester]	> 20 µM	> 20 µM	69 µM	–	–
O=[N+]([O-])c1ccc(NCC(O)COc2ccc(S(=O)(=O)C(F)(F)F)cc2[N+](=O)[O-])cc1 (centres unmarked) [Example 60, 1-(4-Nitro-phenylamino)-3-(2-nitro-4-trifluoromethanesulfonyl-phenoxy)-propan-2-ol]	50.9 µM	16.2 µM	4.8 µM	–	–
O=[N+]([O-])c1cc(S(=O)(=O)C(F)(F)F)ccc1OCC(CN1CCCCC1)Oc1ccc(S(=O)(=O)C(F)(F)F)cc1[N+](=O)[O-] (centres unmarked) [Example 55, 1-[2,3-Bis-(2-nitro-4-trifluoromethanesulfonyl-phenoxy)-propyl]-piperidine]	2.4 µM	–	3.3 µM	–	–
NS(=O)(=O)c1ccc(NCC(COc2ccc(S(=O)(=O)C(F)(F)F)cc2[N+](=O)[O-])Oc2ccc(S(=O)(=O)C(F)(F)F)cc2[N+](=O)[O-])cc1 (centres unmarked) [Example 62, 4-[2,3-Bis-(2-nitro-4-trifluoromethanesulfonyl-phenoxy)-propylamino]-benzenesulfonamide]	5.7 µM	–	2.3 µM	–	–
O=S(=O)(c1ccc(-c2ncc(-c3ccc4ccccc4c3)o2)cc1)C(F)F [Example 64, 2-[4-(Difluoro-methanesulfonyl)-phenyl]-5-naphthalen-2-yl-oxazole]	–	5.4 µM	5.9 µM	–	–
Cc1cc2cc(NS(=O)(=O)C(F)(F)F)ccc2n1CC(=O)Nc1ccc(C(=O)O)cc1 [Example 85, 4-[2-(2-Methyl-5-trifluoromethanesulfonylamino-indol-1-yl)-acetylamino]-benzoic acid]	> 20 µM	17.4 µM	–	–	–
CCOC(=O)CNC(=O)C(c1ccc(S(=O)(=O)C(F)(F)F)cc1)N(C)C(C)=O (centres unmarked) [Example 47, [2-(Acetyl-methyl-amino)-2-(4-trifluoromethanesulfonyl-phenyl)-acetylamino]-acetic acid ethyl ester]	–	–	> 100 µM	–	–
O=[N+]([O-])c1cc(S(=O)(=O)C(F)(F)F)ccc1OCC(CN1CCOCC1)Oc1ccc(S(=O)(=O)C(F)(F)F)cc1[N+](=O)[O-] (centres unmarked) [Example 56, 4-[2,3-Bis-(2-nitro-4-trifluoromethanesulfonyl-phenoxy)-propyl]-morpholine]	–	4.8 µM	2.9 µM	–	–
CCOC(=O)c1cc(Oc2ccc(S(=O)(=O)C(F)(F)F)cc2[N+](=O)[O-])c(C(=O)OCC)cc1Oc1ccc(S(=O)(=O)C(F)(F)F)cc1[N+](=O)[O-] [Example 54, 2,5-Bis-(2-nitro-4-trifluoromethanesulfonyl-phenoxy)-terephthalic acid diethyl ester]	–	> 20 µM	0.7 µM	–	–
Cc1ccc(Nc2ccc(S(=O)(=O)C(F)(F)C(F)F)cc2[N+](=O)[O-])cc1 [Example 65, [2-Nitro-4-(1,1,2,2-tetrafluoro-ethanesulfonyl)-phenyl]-p-tolyl-amine]	–	11.5 µM	13.1 µM	–	–
O=[N+]([O-])c1ccccc1NCC(COc1ccc(S(=O)(=O)C(F)(F)F)cc1[N+](=O)[O-])Oc1ccc(S(=O)(=O)C(F)(F)F)cc1[N+](=O)[O-] (centres unmarked) [Example 57, [2,3-Bis-(2-nitro-4-trifluoromethanesulfonyl-phenoxy)-propyl]-(2-nitro-phenyl)-amine]	–	–	–	0.6 µM	> 20 µM
NS(=O)(=O)c1ccc(NCC(O)COc2ccc(S(=O)(=O)C(F)(F)F)cc2[N+](=O)[O-])cc1 (centres unmarked) [Example 61, 4-[2-Hydroxy-3-(2-nitro-4-trifluoromethanesulfonyl-phenoxy)-propylamino]-benzenesulfonamide]	7.4 µM	–	1.7 µM	–	–
CCOC(=O)CNC(=O)C(c1ccc(S(=O)(=O)C(F)(F)F)cc1)N(C(=O)c1ccccc1)C1CCCCC1 (centres unmarked) [Example 48, [2-(Benzoyl-cyclohexyl-amino)-2-(4-trifluoromethanesulfonyl-phenyl)-acetylamino]-acetic acid ethyl ester]	–	22.7 µM	37.7 µM	–	–
CCn1c(-c2ccc(C(=O)OC)cc2)nc2cc(S(=O)(=O)C(F)(F)F)ccc21 [Example 35, 4-(1-Ethyl-5-trifluoromethanesulfonyl-1H-benzoimidazol-2-yl)-benzoic acid methyl ester]	32.5 µM	–	31.6 µM	–	–
